Converted amounts (≈) assume the structure as drawn.
Legend:
MRSA = conditions: cited from earlier work
[1] = system: MSSA (Staphylococcus aureus SH1000); experiment: MIC, broth dilution antimicrobial susceptibility; assay type: cell-based; conditions: S. aureus SH1000; highest value of three independent trials
[2] = system: HA-MRSA (Staphylococcus aureus ATCC 33591); experiment: MIC, broth dilution antimicrobial susceptibility; assay type: cell-based; conditions: S. aureus ATCC 33591; highest value of three independent trials
[3] = system: CA-MRSA (Staphylococcus aureus USA 300-0114); experiment: MIC, broth dilution antimicrobial susceptibility; assay type: cell-based; conditions: S. aureus USA 300-0114; highest value of three independent trials
[4] = system: Enterococcus faecalis (OG1RF); experiment: MIC, broth dilution antimicrobial susceptibility; assay type: cell-based; conditions: highest value of three independent trials
[5] = system: Pseudomonas aeruginosa (PAO1); experiment: MIC, broth dilution antimicrobial susceptibility; assay type: cell-based; conditions: highest value of three independent trials
[6] = system: Escherichia coli (MC4100); experiment: MIC, broth dilution antimicrobial susceptibility; assay type: cell-based; conditions: highest value of three independent trials
[7] = system: red blood cell (RBC), mechanically defibrillated sheep's blood; assay type: cell-based
[8] = Partition coefficient by extraction with n-octanol and deionized water; assay type: physicochemical
[9] = system: plasma binding proteins, namely retinoid binding proteins; experiment: Binding to plasma binding proteins; assay type: in vitro ADME; conditions: unpublished data
Solubility within serum = assay type: physicochemical; conditions: preliminary analysis

Compound | minimum inhibitory concentration (MIC) (MRSA; ref [5]) [µg/mL] | Minimum Inhibitory Concentration MSSA [1] [µM] | Minimum Inhibitory Concentration HA-MRSA [2] [µM] | Minimum Inhibitory Concentration CA-MRSA [3] [µM] | Minimum Inhibitory Concentration E. faecalis [4] [µM] | Minimum Inhibitory Concentration P. aeruginosa [5] [µM] | Minimum Inhibitory Concentration E. coli [6] [µM] | Lysis20 [7] [µM] | P (partition coefficient) ([8]; average over 3 independent trials) | logP ([8]; triplicate, ± standard deviation) | binding to plasma binding proteins [9] | solubility within serum (Solubility within serum) | MIC (MRSA; ref [6]–[7]) [µg/mL]
O=C(O)c1ccc2cc(-c3ccc(O)c(C45CC6CC(CC(C6)C4)C5)c3)ccc2c1 [Compound 1, CD437, reference compound] | 1 (≈ 2.51 µM) | – | – | – | – | – | – | – | – | – | – | – | –
OCc1ccc2cc(-c3ccc(O)c(C45CC6CC(CC(C6)C4)C5)c3)ccc2c1 [Compound 2] | – | 2 | 2 | 2 | >250 | >250 | >250 | 125 | 9.16 | 0.93 ± 0.20 | high levels of binding | low solubility | 2 (≈ 5.2 µM)
benzalkonium chloride [BAC, reference compound] | – | 2 | 4 | 4 | 125 | 125 | 32 | 32 | – | – | – | – | –

Reference: article PMC7773174 (Tetrahedron letters, 2020)
